Measurements published in PubChem BioAssay AID2060329 (Molecular Pharmacology Branch, DTP, NCI, 2025).

Test system: MCF7 multi-cell spheroids with HUVEC/MSC, viability
Assay: Anticancer human tumor MCF7 cell line growth inhibition [IpAb];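 also: spheroids exposed to agents for seven days before readout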
Settings: for IC50: curve of first compound; for viability, T/C: stronger effect = lower value
Method in brief: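 Multi-cell spheroids of 60% tumour cells, 25% HUVEC and 15% MSC in ultra-low-attachment U-bottom wells, treated with agents combined with ipatasertib or abemaciclib. Half-log ranges top out near clinical Cmax, or 10 microM when Cmax is unknown.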

[1] = second compound 0.01 µM, first compound 0.0316 µM
[2] = second compound 0.01 µM, first compound 0.1 µM
[3] = second compound 0.0316 µM, first compound 0.0316 µM
[4] = second compound 0.0316 µM, first compound 0.1 µM
[5] = second compound 0.1 µM, first compound 0.0316 µM
[6] = second compound 0.1 µM, first compound 0.1 µM
[7] = second compound 0.316 µM, first compound 0.0316 µM
[8] = second compound 0.316 µM, first compound 0.1 µM
[9] = second compound 1 µM, first compound 0.0316 µM
[10] = second compound 1 µM, first compound 0.1 µM

Structure (SMILES): Cn1ncc(Cl)c1-c1cc(C(=O)NC(CN)Cc2cccc(F)c2)sc1Cl (stereo not given) + CCN1CCN(Cc2ccc(Nc3ncc(F)c(-c4cc(F)c5nc(C)n(C(C)C)c5c4)n3)nc2)CC1
- IC50 (second compound 0.01 µM): 847 nM
- IC50 (second compound 0.0316 µM): 758 nM
- IC50 (second compound 0.1 µM): 838 nM
- IC50 (second compound 0.316 µM): 1320 nM
- IC50 (second compound 1 µM): 715 nM
- viability, T/C [1]: 93%
- viability, T/C [2]: 85.9%
- viability, T/C (second compound 0.01 µM, first compound 0.316 µM): 65.2%
- viability, T/C (second compound 0.01 µM, first compound 1 µM): 53.2%
- viability, T/C (second compound 0.01 µM, first compound 3.16 µM): 15%
- viability, T/C (second compound 0.01 µM, first compound 10 µM): 0.18%
- viability, T/C [3]: 91.9%
- viability, T/C [4]: 89.6%
- viability, T/C (second compound 0.0316 µM, first compound 0.316 µM): 70.7%
- viability, T/C (second compound 0.0316 µM, first compound 1 µM): 46.8%
- viability, T/C (second compound 0.0316 µM, first compound 3.16 µM): 4.25%
- viability, T/C (second compound 0.0316 µM, first compound 10 µM): 0.13%
- viability, T/C [5]: 94.7%
- viability, T/C [6]: 86.3%
- viability, T/C (second compound 0.1 µM, first compound 0.316 µM): 69%
- viability, T/C (second compound 0.1 µM, first compound 1 µM): 53.1%
- viability, T/C (second compound 0.1 µM, first compound 3.16 µM): 5.55%
- viability, T/C (second compound 0.1 µM, first compound 10 µM): 0.15%
- viability, T/C [7]: 95.7%
- viability, T/C [8]: 88.4%
- viability, T/C (second compound 0.316 µM, first compound 0.316 µM): 78.8%
- viability, T/C (second compound 0.316 µM, first compound 1 µM): 64.5%
- viability, T/C (second compound 0.316 µM, first compound 3.16 µM): 7.44%
- viability, T/C (second compound 0.316 µM, first compound 10 µM): 0.17%
- viability, T/C [9]: 98.7%
- viability, T/C [10]: 81.1%
- viability, T/C (second compound 1 µM, first compound 0.316 µM): 62.9%
- viability, T/C (second compound 1 µM, first compound 1 µM): 56.2%
- viability, T/C (second compound 1 µM, first compound 3.16 µM): 0.7%
- viability, T/C (second compound 1 µM, first compound 10 µM): 0.23%

Structure (SMILES): Cn1ncnc1[C@H]1c2n[nH]c(=O)c3cc(F)cc(c23)N[C@@H]1c1ccc(F)cc1 + CCN1CCN(Cc2ccc(Nc3ncc(F)c(-c4cc(F)c5nc(C)n(C(C)C)c5c4)n3)nc2)CC1
- IC50 (second compound 0.01 µM): > 100 nM
- IC50 (second compound 0.0316 µM): > 100 nM
- IC50 (second compound 0.1 µM): > 100 nM
- IC50 (second compound 0.316 µM): > 100 nM
- IC50 (second compound 1 µM): > 100 nM
- viability, T/C (second compound 0.01 µM, first compound 0.000316 µM): 95.3%
- viability, T/C (second compound 0.01 µM, first compound 0.001 µM): 102%
- viability, T/C (second compound 0.01 µM, first compound 0.00316 µM): 115%
- viability, T/C (second compound 0.01 µM, first compound 0.01 µM): 98.6%
- viability, T/C [1]: 106%
- viability, T/C [2]: 92.5%
- viability, T/C (second compound 0.0316 µM, first compound 0.000316 µM): 98.6%
- viability, T/C (second compound 0.0316 µM, first compound 0.001 µM): 107%
- viability, T/C (second compound 0.0316 µM, first compound 0.00316 µM): 83.8%
- viability, T/C (second compound 0.0316 µM, first compound 0.01 µM): 89.4%
- viability, T/C [3]: 100%
- viability, T/C [4]: 88.1%
- viability, T/C (second compound 0.1 µM, first compound 0.000316 µM): 114%
- viability, T/C (second compound 0.1 µM, first compound 0.001 µM): 103%
- viability, T/C (second compound 0.1 µM, first compound 0.00316 µM): 107%
- viability, T/C (second compound 0.1 µM, first compound 0.01 µM): 87.5%
- viability, T/C [5]: 85.1%
- viability, T/C [6]: 85.3%
- viability, T/C (second compound 0.316 µM, first compound 0.000316 µM): 108%
- viability, T/C (second compound 0.316 µM, first compound 0.001 µM): 106%
- viability, T/C (second compound 0.316 µM, first compound 0.00316 µM): 93.4%
- viability, T/C (second compound 0.316 µM, first compound 0.01 µM): 97.4%
- viability, T/C [7]: 90.2%
- viability, T/C [8]: 88.7%
- viability, T/C (second compound 1 µM, first compound 0.000316 µM): 100%
- viability, T/C (second compound 1 µM, first compound 0.001 µM): 105%
- viability, T/C (second compound 1 µM, first compound 0.00316 µM): 84.4%
- viability, T/C (second compound 1 µM, first compound 0.01 µM): 100%
- viability, T/C [9]: 85.3%
- viability, T/C [10]: 85.7%
